Assay results from US8952024B2, “Herbicidal pyrimidone derivatives” (E I du Pont de Nemours and Company, priority 2009, dated 2015).

Tests used:
Format in all cases: in vivo
[1] = system: lambsquarters (Chenopodium album); assay: Test B pre-/postemergence plant response
Text: (§1) Seeds of plant species selected from blackgrass (Alopecurus myosuroides), downy bromegrass (Bromus tectorum), green foxtail (Setaria viridis), Italian ryegrass (Lolium multiflorum), wheat (Triticum aestivum), wild oat (Avena fatua), deadnettle (henbit deadnettle, Lamium amplexicaule), galium (catchweed bedstraw, Galium aparine), bermudagrass (Cynodon dactylon), Surinam grass (Brachiaria decumbens), cocklebur (Xanthium strumarium), corn (Zea mays), large crabgrass (Digitaria sanguinalis), woolly cupgrass (Eriochloa villosa), giant foxtail (Setaria faberii), goosegrass (Eleusine indica), johnsongrass (Sorghum halepense), kochia (Kochia scoparia), lambsquarters (Chenopodium album), morningglory (Ipomoea coccinea), nightshade (eastern black nightshade, Solanum ptycanthum), yellow nutsedge (Cyperus esculentus), pigweed (Amaranthus retroflexus), ragweed (common ragweed, Ambrosia elatior), Russian thistle (Salsola kali), soybean (Glycine max), sunflower (common oilseed sunflower, Helianthus annuus) and velvetleaf (Abutilon theophrasti) were planted into a blend of loam soil and sand and treated preemergence with test compounds formulated in a non-phytotoxic solvent mixture which included a surfactant.
(§2) At the same time, plants selected from these crop and weed species and also winter barley (Hordeum vulgare), canarygrass (Phalaris minor), chickweed (Stellaria media) and windgrass (Apera spica-venti) were planted in pots containing Redi-Earth® planting medium (Scotts Company, 14111 Scottslawn Road, Marysville, Ohio 43041) comprising spaghnum peat moss, vermiculite, wetting agent and starter nutrients and treated with postemergence applications of some of the test chemicals formulated in the same manner. Plants ranged in height from 2 to 18 cm (1- to 4-leaf stage) for postemergence treatments.
(§3) Treated plants and controls were maintained in a greenhouse for 13 to 15 days, after which time all treated plants were visually evaluated and compared to controls. Plant response ratings, summarized in Table B, are based on a scale of 0 to 100 where 0 is no effect and 100 is complete control. A dash (-) response means no test result.

[2] = system: wheat (Triticum aestivum); assay: Test B pre-/postemergence plant response
Text: as §1, §2, §3

[3] = system: downy bromegrass (Bromus tectorum); assay: Test B pre-/postemergence plant response
Text: as §1, §2, §3

[4] = system: pigweed (Amaranthus retroflexus); assay: Test B pre-/postemergence plant response
Text: as §1, §2, §3

[5] = system: yellow nutsedge (Cyperus esculentus); assay: Test B pre-/postemergence plant response
Text: as §1, §2, §3

[6] = system: woolly cupgrass (Eriochloa villosa); assay: Test B pre-/postemergence plant response
Text: as §1, §2, §3

[7] = system: bermudagrass (Cynodon dactylon); assay: Test B pre-/postemergence plant response
Text: as §1, §2, §3

[8] = system: Surinam grass (Brachiaria decumbens); assay: Test B pre-/postemergence plant response
Text: as §1, §2, §3

[9] = system: barnyardgrass (Echinochloa crus-galli); assay: Test B flooded paddy test; details: for Plant response rating, Barnyardgrass: Flood (flooded paddy test), 13 to 15 days
Summary of the method: (§4)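 Greenhouse-held for 13 to 15 days, treated pots were compared visually with controls and scored 0–100 (0, no effect). Treatment had been made into paddy water kept at 3 cm above the soil, with plants at the 2-leaf stage.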

[10] = system: ducksalad (Heteranthera limosa); assay: Test B flooded paddy test; details: for Plant response rating, Ducksalad: Flood (flooded paddy test), 13 to 15 days
Summary of the method: as §4

rice (Oryza sativa) = assay: Test B flooded paddy test; details: for Plant response rating, Rice: Flood (flooded paddy test), 13 to 15 days
Summary of the method: as §4

[11] = system: umbrella sedge (Cyperus difformis); assay: Test B flooded paddy test; details: for Plant response rating, Sedge, Umbrella: Flood (flooded paddy test), 13 to 15 days
Summary of the method: as §4

[12] = 250 g ai/ha, Preemergence, 0 to 100 scale
[13] = Postemergence, 31 g ai/ha, scale 0 to 100 (0 no effect, 100 complete control)
[14] = Postemergence, 62 g ai/ha, scale 0 (no effect) to 100 (complete control), 13 to 15 days
[15] = Postemergence, 125 g ai/ha, visual rating after 13 to 15 days, scale 0 (no effect) to 100 (complete control)
[16] = Postemergence, 250 g ai/ha, scale 0 to 100
[17] = Preemergence, 31 g ai/ha, scale 0 to 100 (0 no effect, 100 complete control)
[18] = Preemergence, 62 g ai/ha, scale 0 to 100 (0 no effect, 100 complete control)
[19] = Preemergence, 125 g ai/ha, 0 to 100 scale
[20] = 250 g ai/ha, flooded paddy test, visual rating on 0 to 100 scale (0 no effect, 100 complete control) after 13 to 15 days
[21] = 31 g ai/ha, scale of 0 to 100 where 0 is no effect and 100 is complete control
[22] = 62 g ai/ha, scale 0 to 100, 0 is no effect, 100 is complete control
[23] = 125 g ai/ha, scale 0 to 100, 0 is no effect, 100 is complete control

**Q.** For “3-cyclohexyl-5-[(2-hydroxy-6-oxo-1-cyclohexen-1-yl)carbonyl]-2-phenyl-4(3H)-pyrimidinone [Compound 128]”, which “Plant response rating, Lambsquarters” value [1, 12] is on record?
**A.** 100

**Q.** What about the “Plant response rating, Lambsquarters” value [1, 13] of the same substance?
**A.** 50

**Q.** What about the “Plant response rating, Lambsquarters” value [1, 14] of the same substance?
**A.** 70

**Q.** And the “Plant response rating, Lambsquarters” value [1, 15]?
**A.** 95

**Q.** What about the “Lambsquarters plant response rating” value [1, 16] of the same substance?
**A.** 98

**Q.** And the “Plant response rating, Lambsquarters” value [1, 17]?
**A.** 100

**Q.** What about the “Plant response rating, Lambsquarters” value [1, 18] of the same substance?
**A.** 100

**Q.** What about the “Lambsquarters plant response rating” value [1, 19] of the same substance?
**A.** 100

**Q.** And the “Plant response rating, Wheat” value [2, 12]?
**A.** 5

**Q.** And the “Plant response rating, Wheat” value [2, 13]?
**A.** 30

**Q.** What about the “Plant response rating, Wheat” value [2, 14] of the same substance?
**A.** 35

**Q.** And the “Plant response rating, Wheat” value [2, 15]?
**A.** 40

**Q.** What about the “Wheat plant response rating” value [2, 16] of the same substance?
**A.** 45

**Q.** What about the “Plant response rating, Wheat” value [2, 17] of the same substance?
**A.** 0

**Q.** What about the “Plant response rating, Wheat” value [2, 18] of the same substance?
**A.** 0

**Q.** And the “Wheat plant response rating” value [2, 19]?
**A.** 0

**Q.** And the “Plant response rating, Bromegrass, Downy” value [3, 12]?
**A.** 5

**Q.** And the “Plant response rating, Bromegrass, Downy” value [3, 13]?
**A.** 20

**Q.** And the “Plant response rating, Bromegrass, Downy” value [3, 14]?
**A.** 35

**Q.** What about the “Plant response rating, Bromegrass, Downy” value [3, 15] of the same substance?
**A.** 45

**Q.** What about the “Bromegrass, Downy plant response rating” value [3, 16] of the same substance?
**A.** 45

**Q.** And the “Plant response rating, Bromegrass, Downy” value [3, 17]?
**A.** 0

**Q.** And the “Plant response rating, Bromegrass, Downy” value [3, 18]?
**A.** 0

**Q.** What about the “Bromegrass, Downy plant response rating” value [3, 19] of the same substance?
**A.** 0

**Q.** What about the “Plant response rating, Pigweed” value [4, 12] of the same substance?
**A.** 100

**Q.** What about the “Plant response rating, Pigweed” value [4, 13] of the same substance?
**A.** 65

**Q.** What about the “Plant response rating, Pigweed” value [4, 14] of the same substance?
**A.** 80

**Q.** What about the “Plant response rating, Pigweed” value [4, 15] of the same substance?
**A.** 85

**Q.** What about the “Pigweed plant response rating” value [4, 16] of the same substance?
**A.** 98

**Q.** What about the “Plant response rating, Pigweed” value [4, 17] of the same substance?
**A.** 100

**Q.** And the “Plant response rating, Pigweed” value [4, 18]?
**A.** 100

**Q.** What about the “Pigweed plant response rating” value [4, 19] of the same substance?
**A.** 100

**Q.** What about the “Plant response rating, Nutsedge, Yellow” value [5, 12] of the same substance?
**A.** 90

**Q.** What about the “Plant response rating, Nutsedge, Yellow” value [5, 13] of the same substance?
**A.** 25

**Q.** And the “Plant response rating, Nutsedge, Yellow” value [5, 14]?
**A.** 35

**Q.** And the “Plant response rating, Nutsedge, Yellow” value [5, 15]?
**A.** 50

**Q.** And the “Nutsedge, Yellow plant response rating” value [5, 16]?
**A.** 60

**Q.** And the “Plant response rating, Nutsedge, Yellow” value [5, 17]?
**A.** 0

**Q.** And the “Plant response rating, Nutsedge, Yellow” value [5, 18]?
**A.** 55

**Q.** And the “Nutsedge, Yellow plant response rating” value [5, 19]?
**A.** 85

**Q.** What about the “Plant response rating, Cupgrass, Woolly” value [6, 12] of the same substance?
**A.** 75

**Q.** What about the “Plant response rating, Cupgrass, Woolly” value [6, 13] of the same substance?
**A.** 55

**Q.** And the “Plant response rating, Cupgrass, Woolly” value [6, 14]?
**A.** 75

**Q.** And the “Plant response rating, Cupgrass, Woolly” value [6, 15]?
**A.** 90

**Q.** What about the “Cupgrass, Woolly plant response rating” value [6, 16] of the same substance?
**A.** 95

**Q.** And the “Plant response rating, Cupgrass, Woolly” value [6, 17]?
**A.** 0

**Q.** And the “Plant response rating, Cupgrass, Woolly” value [6, 18]?
**A.** 0

**Q.** And the “Cupgrass, Woolly plant response rating” value [6, 19]?
**A.** 15

**Q.** And the “Plant response rating, Bermudagrass” value [7, 12]?
**A.** 100

**Q.** What about the “Plant response rating, Bermudagrass” value [7, 13] of the same substance?
**A.** 80

**Q.** And the “Plant response rating, Bermudagrass” value [7, 14]?
**A.** 100

**Q.** What about the “Plant response rating, Bermudagrass” value ([7]; Postemergence, 125 g ai/ha, scale 0 to 100 (0 no effect, 100 complete control), 13 to 15 days) of the same substance?
**A.** 100

**Q.** And the “Bermudagrass plant response rating” value [7, 16]?
**A.** 100

**Q.** What about the “Plant response rating, Bermudagrass” value [7, 17] of the same substance?
**A.** 98

**Q.** And the “Plant response rating, Bermudagrass” value [7, 18]?
**A.** 100

**Q.** What about the “Bermudagrass plant response rating” value [7, 19] of the same substance?
**A.** 100

**Q.** What about the “Plant response rating, Surinam Grass” value [8, 12] of the same substance?
**A.** 75

**Q.** And the “Plant response rating, Surinam Grass” value [8, 13]?
**A.** 60

**Q.** What about the “Plant response rating, Surinam Grass” value [8, 14] of the same substance?
**A.** 70

**Q.** What about the “Plant response rating, Surinam Grass” value [8, 15] of the same substance?
**A.** 85

**Q.** And the “Surinam Grass plant response rating” value [8, 16]?
**A.** 85

**Q.** And the “Plant response rating, Surinam Grass” value [8, 17]?
**A.** 0

**Q.** What about the “Plant response rating, Surinam Grass” value [8, 18] of the same substance?
**A.** 25

**Q.** What about the “Surinam Grass plant response rating” value [8, 19] of the same substance?
**A.** 35

**Q.** And the “Plant response rating, Flood, Barnyardgrass” value [9, 20]?
**A.** 25

**Q.** And the “Plant response rating, Barnyardgrass” value [9, 21]?
**A.** 0

**Q.** And the “Plant response rating, Barnyardgrass” value [9, 22]?
**A.** 0

**Q.** What about the “Plant response rating, Barnyardgrass” value [9, 23] of the same substance?
**A.** 0

**Q.** And the “Plant response rating, Flood, Ducksalad” value [10, 20]?
**A.** 80

**Q.** What about the “Plant response rating, Ducksalad” value [10, 21] of the same substance?
**A.** 0

**Q.** And the “Plant response rating, Ducksalad” value [10, 22]?
**A.** 0

**Q.** And the “Plant response rating, Ducksalad” value [10, 23]?
**A.** 65

**Q.** And the “Plant response rating, Flood, Rice” value (rice (Oryza sativa); [20])?
**A.** 25

**Q.** What about the “Plant response rating, Rice” value (rice (Oryza sativa); [21]) of the same substance?
**A.** 0

**Q.** What about the “Plant response rating, Rice” value (rice (Oryza sativa); [22]) of the same substance?
**A.** 10

**Q.** What about the “Plant response rating, Rice” value (rice (Oryza sativa); [23]) of the same substance?
**A.** 20

**Q.** What about the “Plant response rating, Flood, Sedge, Umbrella” value [11, 20] of the same substance?
**A.** 85

**Q.** And the “Plant response rating, Sedge, Umbrella” value [11, 21]?
**A.** 0

**Q.** What about the “Plant response rating, Sedge, Umbrella” value [11, 22] of the same substance?
**A.** 0

**Q.** What about the “Plant response rating, Sedge, Umbrella” value [11, 23] of the same substance?
**A.** 40
